The values below are quoted from earlier work in patent US10299480B2 (priority 2014, dated 2019).

The structures appear in SMILES notation.

The subject of one series is herpes virus. The conditions noted are these: 10 minute exposure.
In a further series the test system is adenovirus. The conditions noted are these: 10 minute exposure, same conditions.

On to `N=C(NCCCCCCNC(=N)NC(=N)Nc1ccc(Cl)cc1)NC(=N)Nc1ccc(Cl)cc1.O=C(O)[C@H](O)[C@@H](O)[C@H](O)[C@H](O)CO.O=C(O)[C@H](O)[C@@H](O)[C@H](O)[C@H](O)CO` [CHX, Chlorhexidine digluconate], for which the “Reduction of the number of virus particles” value with herpes virus is recorded as 5-6 times. Further, the “Effect on non-enveloped virus” value in the series with adenovirus and with poliovirus was “virtually no effect” each time.
